{"source": "patent US20250213494A1", "about": "“METHODS AND COMPOSITIONS FOR POTENTIATION OF A LIGAND” (priority 2022, published 2025)", "system": "RXFP1 gene expression in human fibroblast like synoviocytes", "assay": "RXFP1 gene expression by qPCR after corticosteroid treatment under fibrotic conditions", "assay_type": "cell-based", "conditions": "qPCR (FIG. 3)", "description": "RXFP1 gene expression after treatment with (left) dexamethasone, (middle) methylprednisolone, and (right) cortisone under fibrotic conditions."}
{"smiles": "C[C@]12CCC(=O)C=C1CC[C@@H]1[C@@H]2C(=O)C[C@@]2(C)[C@H]1CC[C@]2(O)C(=O)CO", "note": "[cortisone]", "values": [{"measurement": "RXFP1 gene expression", "value": "increases RXFP1 gene expression"}]}
